Molecular target: GABA-A receptor; alpha-1/beta-2/gamma-2 (Rattus norvegicus, UniProt P18508+P62813+P63138)
Assay: Inhibition of rat GABA alpha-1-beta-2-gamma-2 receptor
Type: protein-complex assay

Chain of GABA-A receptor; alpha-1/beta-2/gamma-2 (P18508 whole entry): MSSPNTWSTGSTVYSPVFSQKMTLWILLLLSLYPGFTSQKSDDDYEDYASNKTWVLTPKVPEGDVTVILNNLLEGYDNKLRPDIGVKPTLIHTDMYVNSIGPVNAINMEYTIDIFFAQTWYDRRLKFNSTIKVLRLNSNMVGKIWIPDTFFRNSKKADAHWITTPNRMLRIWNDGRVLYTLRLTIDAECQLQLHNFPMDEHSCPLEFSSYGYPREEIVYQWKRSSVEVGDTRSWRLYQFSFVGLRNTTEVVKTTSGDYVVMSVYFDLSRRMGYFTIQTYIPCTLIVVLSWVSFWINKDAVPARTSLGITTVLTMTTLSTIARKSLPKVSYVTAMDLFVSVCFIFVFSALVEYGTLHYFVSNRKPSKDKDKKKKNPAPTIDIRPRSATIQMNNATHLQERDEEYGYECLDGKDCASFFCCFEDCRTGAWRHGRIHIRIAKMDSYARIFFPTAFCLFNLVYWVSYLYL
Chain of GABA-A receptor; alpha-1/beta-2/gamma-2 (P62813 whole entry): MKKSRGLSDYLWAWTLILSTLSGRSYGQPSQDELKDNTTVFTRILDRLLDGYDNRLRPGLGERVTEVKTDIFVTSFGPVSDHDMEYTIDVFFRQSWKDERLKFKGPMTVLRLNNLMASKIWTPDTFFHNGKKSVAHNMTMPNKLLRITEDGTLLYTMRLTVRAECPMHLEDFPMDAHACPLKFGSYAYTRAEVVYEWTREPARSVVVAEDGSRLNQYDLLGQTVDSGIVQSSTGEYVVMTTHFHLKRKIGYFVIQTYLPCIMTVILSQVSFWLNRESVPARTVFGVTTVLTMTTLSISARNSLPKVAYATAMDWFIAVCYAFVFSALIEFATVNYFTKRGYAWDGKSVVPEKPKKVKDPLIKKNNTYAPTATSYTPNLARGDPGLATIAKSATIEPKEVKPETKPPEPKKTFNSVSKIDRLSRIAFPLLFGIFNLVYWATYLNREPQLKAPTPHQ
Chain of GABA-A receptor; alpha-1/beta-2/gamma-2 (P63138 whole entry): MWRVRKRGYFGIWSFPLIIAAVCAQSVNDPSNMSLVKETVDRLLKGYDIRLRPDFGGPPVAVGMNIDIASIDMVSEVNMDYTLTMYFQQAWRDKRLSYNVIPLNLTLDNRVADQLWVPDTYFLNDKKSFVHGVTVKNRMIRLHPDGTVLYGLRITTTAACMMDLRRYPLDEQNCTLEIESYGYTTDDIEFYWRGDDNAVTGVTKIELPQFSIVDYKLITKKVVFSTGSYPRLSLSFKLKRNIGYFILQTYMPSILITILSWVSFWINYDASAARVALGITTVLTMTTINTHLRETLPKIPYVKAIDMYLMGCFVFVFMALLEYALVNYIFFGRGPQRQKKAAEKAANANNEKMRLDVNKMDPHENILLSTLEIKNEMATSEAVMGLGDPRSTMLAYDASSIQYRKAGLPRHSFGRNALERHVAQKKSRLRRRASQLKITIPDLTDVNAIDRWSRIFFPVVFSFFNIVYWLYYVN

IC50 | SMILES
1700 nM | NC(=O)/C(=C\Nc1ccc(Cl)cc1)C(=O)c1ccccc1Cl
158 nM | CNC(=O)/C(=C\Nc1ccc(Cl)cc1)C(=O)c1ccccc1Cl
79.4 nM | CCC(CC)NC(=O)/C(=C\Nc1ccc(Cl)cc1)C(=O)c1ccccc1Cl
50.1 nM | CCNC(=O)/C(=C\Nc1ccc(Cl)cc1)C(=O)c1ccccc1Cl
39.8 nM | CC(C)NC(=O)/C(=C\Nc1ccc(Cl)cc1)C(=O)c1ccccc1Cl
30.2 nM | O=C(NC1CC1)/C(=C\Nc1ccc(Cl)cc1)C(=O)c1ccccc1Cl
30.2 nM | O=C(NC1CCCC1)/C(=C\Nc1ccc(Cl)cc1)C(=O)c1ccccc1Cl
3020 nM | CC(C)(C)NC(=O)/C(=C\Nc1ccc(Cl)cc1)C(=O)c1ccccc1Cl
398 nM | CC(C)C(C)NC(=O)/C(=C\Nc1ccc(Cl)cc1)C(=O)c1ccccc1Cl (configuration not stated)
20 nM | CCC(C)NC(=O)/C(=C\Nc1ccc(Cl)cc1)C(=O)c1ccccc1Cl (configuration not stated)
7.08 nM | O=C(NC1CCC1)/C(=C\Nc1ccc(Cl)cc1)C(=O)c1ccccc1Cl
44.7 nM | CCCNC(=O)/C(=C\Nc1ccc(Cl)cc1)C(=O)c1ccccc1Cl

From ChEMBL document CHEMBL1240493, “Homology modeling and atomic level binding study of GABA(A) receptor with novel enaminone amides” (Eur J Med Chem, 2010)
